We go through five molecules from patent US7776875B2, “Spiroindolinone derivatives” (Hoffman-La Roche Inc., priority 2007, dated 2010).

The experiment deals with recombinant GST-tagged MDM2 / p53-peptide interaction (Homo sapiens, UniProt Q00987). The experiment is described as follows: HTRF assay of inhibition of the p53-MDM2 interaction. Format: binding. To be noted: 0.02% BSA. Here is the method: The ability of the compounds to inhibit the interaction between p53 and MDM2 proteins was measured by an HTRF (homogeneous time-resolved fluorescence) assay in which recombinant GST-tagged MDM2 binds to a peptide that resembles the MDM2-interacting region of p53 (Lane et al.). Binding of GST-MDM2 protein and p53-peptide (biotinylated on its N-terminal end) is registered by the FRET (fluorescence resonance energy transfer) between Europium (Eu)-labeled anti-GST antibody and streptavidin-conjugated Allophycocyanin (APC).
recombinant GST-tagged MDM2 / p53-peptide interaction, sequence (Q00987 whole entry): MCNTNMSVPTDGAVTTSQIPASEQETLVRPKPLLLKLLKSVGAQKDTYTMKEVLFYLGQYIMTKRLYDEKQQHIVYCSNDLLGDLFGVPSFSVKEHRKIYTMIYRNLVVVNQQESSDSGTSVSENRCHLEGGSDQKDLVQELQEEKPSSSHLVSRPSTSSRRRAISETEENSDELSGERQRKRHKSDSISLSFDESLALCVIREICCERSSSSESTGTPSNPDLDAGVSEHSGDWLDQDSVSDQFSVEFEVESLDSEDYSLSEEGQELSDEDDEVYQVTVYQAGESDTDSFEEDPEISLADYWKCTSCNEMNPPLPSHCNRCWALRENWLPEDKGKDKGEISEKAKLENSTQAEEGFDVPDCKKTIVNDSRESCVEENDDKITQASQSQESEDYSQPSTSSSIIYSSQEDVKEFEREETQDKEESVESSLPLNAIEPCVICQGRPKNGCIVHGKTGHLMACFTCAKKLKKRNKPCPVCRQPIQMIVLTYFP
[…] Add 10 uL diluted compounds (1:5 dilution in reaction buffer) to each well, mix by shaking. Add 20 uL biotinylated p53 peptide (180 nM working solution) in reaction buffer to each well and mix on shaker. Incubate at 37° C. for h. Add 20 uL streptavidin-APC and Eu-anti-GST antibody mixture (6 nM Eu-anti-GST and 60 nM streptavidin-APC working solution) in TBS buffer with 0.2% BSA, shake at room temperature for 30 minutes and read using a TRF-capable plate reader at 665 and 615 nm (Victor 5, Perkin ElmerWallac). If not specified, the reagents were purchased from Sigma Chemical Co.
For the molecule `Cc1ccc(F)cc1[C@@H]1NC(=O)C[C@H](c2cc(Cl)ccc2OC(C)(C)C(=O)NCCN2CCCCC2)[C@@]12C(=O)Nc1cc(Cl)ccc12` (racemic) [Example 8, Racemic (2′S,3S,4′R)-6-chloro-4′-{5-chloro-2-[1-methyl-1-(2-piperidin-1-yl-ethylcarbamoyl)-ethoxy]-phenyl}-2′-(5-fluoro-2-methyl-phenyl)-spiro[3H-indole-3,3′-piperidine]-2,6′(1H)-dione], the IC50 amounted to 0.327 µM.
Regarding `Cc1ccc(F)cc1[C@@H]1NC(=O)C[C@H](c2cc(Cl)ccc2OC2(C(=O)NS(=O)(=O)c3ccc(F)cc3)CCC2)[C@@]12C(=O)Nc1cc(Cl)ccc12` (racemic) [Example 11, Racemic (2′S,3S,4′R)-6-chloro-4′-{5-chloro-2-[1-(4-fluoro-benzenesulfonylaminocarbonyl)-cyclobutoxy]-phenyl}-2′-(5-fluoro-2-methyl-phenyl)-spiro[3H-indole-3,3′-piperidine]-2,6′(1H)-dione], the IC50 is 0.065 µM.
For `Cc1ccc(F)cc1[C@@H]1NC(=O)C[C@H](c2cc(Cl)ccc2OC(C)(C)C(=O)N2CCC(F)(F)CC2)[C@@]12C(=O)Nc1cc(Cl)ccc12` [Example 29b, (2′S,3S,4′R)-6-chloro-4′-{5-chloro-2-[2-(4,4-difluoro-piperidin-1-yl)-1,1-dimethyl-2-oxo-ethoxy]-phenyl}-2′-(5-fluoro-2-methyl-phenyl)spiro[3H-indole-3,3′-piperidine]-2,6′(1H)-dione], the half-inhibitory concentration (IC50) was determined as 0.054 µM.
With `Cc1ccc(F)cc1[C@@H]1NC(=O)C[C@H](c2cc(Cl)ccc2OC(C)(C)C(=O)NC2CCN(C)CC2)[C@@]12C(=O)Nc1cc(Cl)ccc12` (racemic) [Example 1g, Racemic (2′S,3S,4′R)-6-chloro-4′-{5-chloro-2-[1-methyl-1-(1-methyl-piperidin-4-ylcarbamoyl)-ethoxy]-phenyl}-2′-(5-fluoro-2-methyl-phenyl)spiro[3H-indole-3,3′-piperidine]-2,6′(1H)-dione], the 50% inhibitory concentration (IC50) came to 0.278 µM.
The figure for `CN(C)C(=O)C(C)(C)Oc1ccc(Cl)cc1[C@H]1CC(=O)N[C@@H](c2cc(Cl)ccc2F)[C@]12C(=O)Nc1cc(Cl)ccc12` (racemic) [Example 34d, (2′R,3S,4′R)-6-chloro-4′-[5-chloro-2-(1-dimethylcarbamoyl-1-methyl-ethoxy)-phenyl]-2′-(2-fluoro-5chloro-phenyl)spiro[3H-indole-3,3′-piperidine]-2,6′(1H)-dione] is 0.155 µM.
